Results as given in PubChem BioAssay (NCI).
Several values for one entry are separate records, joined by “and”; a condition that tells them apart may be missing. Identical values can stand only once.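 Where inhibition never reached the appropriate level, the endpoint shown equals the highest concentration tested. Otherwise, values were interpolated linearly from a five-concentration, 48-hour dose response in 96-well plates. GI50: concentration for 50% inhibition of growth. TGI: total growth inhibition.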

Assays:
Experiment in all cases: NCI anticancer screen, dose series, 48 h
[1] = system: ACHN renal
[2] = system: CAKI-1 renal
[3] = system: HCC-2998 colon
[4] = system: SK-MEL-2 melanoma
[5] = system: HS 578T breast
[6] = system: SF-295 CNS
[7] = system: HL-60(TB) leukemia
[8] = system: UACC-257 melanoma
[9] = system: DLD-1 colon
[10] = system: M19-MEL melanoma

Row | Compound | GI50 [1] [µM] | TGI [1] [µM] | GI50 [2] [µM] | TGI [2] [µM] | GI50 [3] | TGI [3] | GI50 [4] [µM] | TGI [4] [µM] | GI50 [5] [µM] | TGI [5] [µM] | GI50 [6] [µM] | TGI [6] | GI50 [7] [µM] | TGI [7] [µM] | GI50 [8] | TGI [8] [µM] | TGI [9] [µM] | TGI [10] [µM]
1 | COc1ncc(-c2nc3c(n2C(C)C)[C@H](c2ccc(Cl)cc2)N(c2cc(Cl)cn(C)c2=O)C3=O)c(OC)n1 | 15.2 | > 100 | 26.3 | > 100 | 60.1 µM | > 100 µM | 46.3 | > 100 | 32.6 | > 100 | 36.8 | > 100 µM | 31.2 | 99.7 | 17.2 µM | 94.4 | – | –
2 | Cc1c(O)c(=O)ccn1C1OC(CO)C(O)C1O (stereo not given) | – | > 100 | – | > 100 | – | – | – | > 100 | – | – | – | > 100 µM | – | 56.3 | – | > 100 | > 100 | > 100
3 | Cn1cc2c(n1)c(N/N=C/c1ccccc1)nn1nnnc21 | – | > 100 | – | > 100 | – | > 100 µM | – | – | – | – | – | > 100 µM | – | > 100 | – | > 100 | > 100 | > 100
4 | CC(CN)[C@@H]1CC[C@]2(CO)CC[C@]3(C)[C@H](CC[C@@H]4[C@@]5(C)CCC(NCCO)C(C)(C)[C@@H]5CC[C@]43C)[C@@H]12 (stereo not given in full) | 5.2 | 17.6 | 4.12 | 16.6 | 1.89 µM | 3.57 µM | 1.8 | 3.42 | 1.87 | 4.59 | 1.74 | 3.4 µM | 2.65 | 7.47 | 1.73 µM | 3.15 | – | –
5 | COc1ccc2nc(NCCCNCCO)c3sc4ccc(F)cc4c(=O)c3c2c1 | 1.63 | 2.99 | 1.58 | 2.98 | 1.76 µM | 3.61 µM | 1.92 | 3.95 | 1.6 | 3.57 | 1.73 | 3.22 µM | 1.92 | 3.87 | 1.89 µM | 4.04 | – | –
6 | Nc1nc2ccc([C@@H]3Nc4ccc5[nH]ncc5c4[C@H]4[C@H]5CCC(C5)[C@H]43)cc2s1 | 1.37 | 9.57 | 0.791 | 3.34 | 1.75 µM | 3.76 µM | 1.82 | 6.79 | 1.39 | 4.4 | 0.648 | 5.95 µM | 0.345 | 1.37 | 2.12 µM | 5.46 | – | –
7 | COc1cc2c3c(n(CCCN)c(=O)c2cc1OC)-c1ccc(F)cc1C3=O | 0.861 | 6.14 | 1.69 | 15.6 | 2.67 µM | 12.6 µM | 17 | 34.7 | 6.49 | 13.6 | 0.564 | 14.9 µM | 8.15 | 24.9 | 13.9 µM | 31 | – | –
8 | CC[C@@]1(O)C(=O)OCc2c1cc1n(c2=O)Cc2cc3cc(OC)ccc3nc2-1 | – | – | – | 0.0908 | 0.147 µM and 0.0656 µM | 0.29 µM and 1.09 µM and 0.388 µM | – | 0.529 | – | – | – | 0.0933 µM and 0.8 µM | 0.00873 | 0.0172 | 0.0998 µM and 0.17 µM | 1.54 | – | 1.48
9 | C/C(=N\NC(=O)CC(=O)Nc1ccc(Cl)cc1)c1cc2ccccc2oc1=O | – | > 100 | – | – | – | – | – | – | – | – | – | > 100 µM | – | > 100 | – | > 100 | > 100 | > 100
10 | O=C1C(Cl)=C(Nc2ccc3cn[nH]c3c2)C(=O)c2ccccc21 | 1.33 | 2.61 | 1.47 | 2.78 | 2.02 µM | 3.99 µM | 1.71 | 3.54 | 0.5 | 3.88 | 1.67 | 4.14 µM | 1.7 | 4.45 | 1.66 µM | 3.06 | – | –
11 | CN(C)CCNC(=O)c1cccc2cc3ccccc3nc12 | 0.437 | 2.85 | 0.62 | 3.14 | 1.63 µM | 5.9 µM | 2.27 | 4.34 | 1.6 | 10.2 | 1.26 | 4.62 µM | 1.03 | 5.3 | 1.6 µM | 3.55 | – | –
12 | C=C1C(=O)O[C@H]2[C@H]1CC/C(COC(=O)C(=O)c1c[nH]c3ccc(OC)cc13)=C\CC[C@@]1(C)O[C@@H]21 | 4.21 | 9.2 | 9.23 | 23.3 | 6.29 µM | 9.82 µM | – | > 20.4 | 10.1 | 40.2 | 12.4 | 29.5 µM | 5.13 | 12.5 | 6.53 µM | 12.1 | – | –
13 | CCCCCCCCOc1ccc(/C=N/Nc2cc(C)nc3ccc(Cl)cc23)cc1 | 1.74 | 3.13 | 1.69 | 3.11 | 2.03 µM | 3.59 µM | 1.97 | 3.59 | 2.23 | 4.51 | 1.83 | 3.45 µM | 2 | 4.46 | 1.75 µM | 4.03 | – | –
14 | Nc1nc2c(c3ncccc13)C(c1cccc(Cl)c1)Cc1ncccc1-2 (stereo not given) | 5.13 | 67.1 | 3.04 | 51.8 | 2.77 µM | 15.1 µM | 1.84 | 15.4 | 3.83 | 34.4 | 2.21 | 11 µM | 1.21 | 10.3 | 15 µM | 44.5 | – | –
15 | N#Cc1c[nH]n2ccnc12 | – | > 100 | – | > 100 | – | > 100 µM | – | > 100 | – | > 100 | – | > 100 µM | – | > 100 | – | > 100 | – | –
16 | O=C1c2cccnc2-c2nc(/C=C/c3ccccc3)cc3c2c1nc1ccccc13 | 1.94 | 5.54 | 3.05 | 10.3 | 1.81 µM | 3.2 µM | 2.14 | 4.99 | 3.74 | 18 | 2.31 | 5.27 µM | 1.79 | 7.97 | 2.35 µM | 6.3 | – | –
